Measurements reported in patent US12303845B2, “Method for crystallization of active pharmaceutical ingredients” (Nanoform Finland Oyj, priority 2023, dated 2025).

How the values were obtained:
[1] = SEM of crystallized suspensions and dried products (crystal size grade, particle size); type: physicochemical; parameters: key: 5 = nanocrystals; 1 = large crystals
Procedure: SEM images were captured using the Zeiss Sigma 300 VP SEM instruments. Samples were dispersed into water and filtered with 0.1 μm filter. Filters were dried, transferred to SEM sample holders, and coated with a 5 nm thick layer of platinum. Amorphous API nanoparticles (budesonide, ezetimibe, ceritinib, and apalutamide) were added as dry powders to aqueous polymer solutions. The mixtures were either • (i) mixed with a magnetic stirrer and ultrasonicated until API was completely surrounded by water (wetted). The stirring was continued for 16-24 h at ambient temperature or • (ii) blended with a metal spatula and allowed to stay at room temperature for 18-24 h. The suspensions formed were analyzed after 18-24 h. SEM and XRD samples were prepared as described above. Suspension comprising nanosized APIs prepared as shown above were dried in a vacuum desiccator overnight. The solid materials were grounded to produce powders. The powders were analyzed on XRD and SEM. The powders comprising nanosized APIs were used in the stability, permeability, and dissolution tests as described above.

[2] = Crystallization of amorphous nanosized API in aqueous polymer solution, polymorph/crystallinity by XRD; type: physicochemical
Procedure: XRPD measurements were carried out using the Malvern PANalytical Empyrean X-ray diffractometer equipped with a Cu Kα (1.54 Å) source, MultiCore optics and a solid-state PIXcel3D detector. By using Kapton tape the samples were attached onto aluminum or polycrystalline silicon sample holders. Dried slurries were measured without further sample preparation under Kapton tape and suspensions were filtered, dried, and filters were attached with double sided tape. The samples were measured in the reflection geometry in a spinning measurement stage. The measurement range was 5-40 (°2θ). The step size and time per step values were varied depending on the counts per second obtained.
Determination of crystallization of API nanoparticles was evaluated via kinetic study of suspension. Accordingly, XRD measurement was done for suspension in different time points.
Amorphous API nanoparticles (budesonide, ezetimibe, ceritinib, and apalutamide) were added as dry powders to aqueous polymer solutions. The mixtures were either • (i) mixed with a magnetic stirrer and ultrasonicated until API was completely surrounded by water (wetted). The stirring was continued for 16-24 h at ambient temperature or • (ii) blended with a metal spatula and allowed to stay at room temperature for 18-24 h.
The suspensions formed were analyzed after 18-24 h. SEM and XRD samples were prepared as described above.

[3] = HPMC 1 wt.-%, SLS 0.2 wt.-%, mAPI 25 mg/g
[4] = HPMC 1 wt.-%, no SLS, mAPI 25 mg/g
[5] = HPMC 2.5 wt.-%, SLS 0.2 wt.-%, mAPI 25 mg/g
[6] = HPMC 2.5 wt.-%, no SLS, mAPI 25 mg/g
[7] = HPMC 5 wt.-%, SLS 0.2 wt.-%, mAPI 100 mg/g
[8] = HPMC 5 wt.-%, SLS 0.2 wt.-%, mAPI 150 mg/g
[9] = HPMC 5 wt.-%, SLS 0.2 wt.-%, mAPI 200 mg/g
[10] = PVPVA 1 wt.-%, SLS 0.2 wt.-%, mAPI 25 mg/g
[11] = PVPVA 1 wt.-%, no SLS, mAPI 25 mg/g polymer solution
[12] = PVPVA 2.5 wt.-%, SLS 0.2 wt.-%, mAPI 25 mg/g
[13] = PVPVA 2.5 wt.-%, no SLS, mAPI 25 mg/g
[14] = PVPVA 5 wt.-%, SLS 0.2 wt.-%, mAPI 25 mg/g
[15] = PVPVA 5 wt.-%, no SLS, mAPI 25 mg/g
[16] = PVPVA 10 wt.-%, SLS 0.2 wt.-%, mAPI 25 mg/g
[17] = PVPVA 10 wt.-%, no SLS, mAPI 25 mg/g
[18] = PVPVA 20 wt.-%, no SLS, mAPI 200 mg/g
[19] = PVPVA 25 wt.-%, SLS 0.2 wt.-%, mAPI 500 mg/g
[20] = PVPVA 25 wt.-%, no SLS, mAPI 250 mg/g
[21] = PVPVA 25 wt.-%, no SLS, mAPI 500 mg/g
[22] = PVPVA 45 wt.-%, SLS 0.2 wt.-%, mAPI 450 mg/g
[23] = PVPVA 45 wt.-%, no SLS, mAPI 450 mg/g
[24] = Poloxamer 407 1 wt.-%, SLS 0.2 wt.-%, mAPI 25 mg/g
[25] = Poloxamer 407 1 wt.-%, no SLS, mAPI 25 mg/g
[26] = Poloxamer 407 2.5 wt.-%, SLS 0.2 wt.-%, mAPI 25 mg/g
[27] = Poloxamer 407 2.5 wt.-%, no SLS, mAPI 25 mg/g
[28] = Poloxamer 407 5 wt.-%, SLS 0.2 wt.-%, mAPI 25 mg/g
[29] = Poloxamer 407 5 wt.-%, no SLS, mAPI 25 mg/g
[30] = Poloxamer 407 15 wt.-%, SLS 0.2 wt.-%, mAPI 150 mg/g
[31] = Poloxamer 407 15 wt.-%, SLS 0.2 wt.-%, mAPI 300 mg/g
[32] = Poloxamer 407 15 wt.-%, SLS 0.2 wt.-%, mAPI 450 mg/g
[33] = Poloxamer 407 15 wt.-%, no SLS, mAPI 150 mg/g
[34] = Poloxamer 407 15 wt.-%, no SLS, mAPI 300 mg/g
[35] = Poloxamer 407 15 wt.-%, no SLS, mAPI 450 mg/g

In the case of `CNC(=O)c1ccc(N2C(=S)N(c3cnc(C#N)c(C(F)(F)F)c3)C(=O)C23CCC3)cc1F` [Apa, apalutamide], the “Grade (SEM, visual inspection)” value [1, 3] is reported as 5, the “Grade (SEM, visual inspection)” value [1, 4] is reported as 5 and the “Grade (SEM, visual inspection)” value [1, 5] is reported as 5. The “Grade (SEM, visual inspection)” value [1, 6] was 4, the “Grade (SEM, visual inspection)” value [1, 7] was 5 and the “Grade (SEM, visual inspection)” value [1, 8] was 5. The “Grade (SEM, visual inspection)” value [1, 9] was 5, the “Grade (SEM, visual inspection)” value [1, 10] was 4 and the “Grade (SEM, visual inspection)” value [1, 11] was 4. The “Grade (SEM, visual inspection)” value [1, 12] was 4, the “Grade (SEM, visual inspection)” value [1, 13] was 4 and the “Grade (SEM, visual inspection)” value [1, 14] was 4. The “Grade (SEM, visual inspection)” value [1, 15] was 4, the “Grade (SEM, visual inspection)” value [1, 16] was 5 and the “Grade (SEM, visual inspection)” value [1, 17] was 4. For the same molecule, the “Grade (SEM, visual inspection)” value [1, 18] was 5, the “Grade (SEM, visual inspection)” value [1, 19] was 5 and the “Grade (SEM, visual inspection)” value [1, 20] was 5. The “Grade (SEM, visual inspection)” value [1, 21] was 5, the “Grade (SEM, visual inspection)” value [1, 22] was 5 and the “Grade (SEM, visual inspection)” value [1, 23] was 5. For the same molecule, the “Grade (SEM, visual inspection)” value [1, 24] was 2, the “Grade (SEM, visual inspection)” value [1, 25] was 2 and the “Grade (SEM, visual inspection)” value [1, 26] was 2. The “Grade (SEM, visual inspection)” value [1, 27] was 2, the “Grade (SEM, visual inspection)” value [1, 28] was 2 and the “Grade (SEM, visual inspection)” value [1, 29] was 2. For the same molecule, the “Grade (SEM, visual inspection)” value [1, 30] was 1, the “Grade (SEM, visual inspection)” value [1, 31] was 1 and the “Grade (SEM, visual inspection)” value [1, 32] was 1. For the same molecule, the “Grade (SEM, visual inspection)” value [1, 33] was 1, the “Grade (SEM, visual inspection)” value [1, 34] was 1 and the “Grade (SEM, visual inspection)” value [1, 35] was 1. The Polymorph [2, 3] was “new”, the Polymorph [2, 4] was “new” and the Polymorph [2, 5] was “new”. The Polymorph [2, 6] was “new”, the Polymorph [2, 7] was “new” and the Polymorph [2, 8] was “new”. For the same molecule, the Polymorph [2, 9] was “new”, the Polymorph ([2]; HPMC 5 wt.-%, SLS 0.2 wt.-%, mAPI 250 mg/g) was “new” and the Polymorph ([2]; HPMC 5 wt.-%, SLS 0.2 wt.-%, mAPI 300 mg/g) was “new”. For the same molecule, the Polymorph ([2]; HPMC 5 wt.-%, no SLS, mAPI 100 mg/g) was “amorphous”, the Polymorph [2, 10] was “new” and the Polymorph [2, 11] was “new”. For the same molecule, the Polymorph [2, 12] was “new”, the Polymorph [2, 13] was “new” and the Polymorph [2, 14] was “new”. For the same molecule, the Polymorph [2, 15] was “new”, the Polymorph [2, 16] was “new” and the Polymorph [2, 17] was “new”. The Polymorph ([2]; PVPVA 15 wt.-%, no SLS, mAPI 450 mg/g) was “amorphous”, the Polymorph ([2]; PVPVA 15 wt.-%, no SLS, mAPI 600 mg/g) was “amorphous” and the Polymorph [2, 18] was “new”. For the same molecule, the Polymorph ([2]; PVPVA 20 wt.-%, no SLS, mAPI 600 mg/g) was “amorphous”, the Polymorph [2, 19] was “new” and the Polymorph [2, 20] was “new”. The Polymorph [2, 21] was “new”, the Polymorph [2, 22] was “new” and the Polymorph [2, 23] was “new”. The Polymorph [2, 24] was “Form B”, the Polymorph [2, 25] was “Form B” and the Polymorph [2, 26] was “Form B”. For the same molecule, the Polymorph [2, 27] was “Form B”, the Polymorph [2, 28] was “Form B” and the Polymorph [2, 29] was “Form B”. The Polymorph [2, 30] was “Form B”, the Polymorph [2, 31] was “Form B” and the Polymorph [2, 32] was “Form B”. The Polymorph [2, 33] was “Form B”, the Polymorph [2, 34] was “Form B” and the Polymorph [2, 35] was “Form B”.
